US7541463B2, “Sulfur-containing naphthalimide derivatives” (East China University of Science and Technology, priority 2003, dated 2009)
Entries after “also recorded” stand apart in the source; their conditions may differ.

Experiments:
S-180 sarcoma [1] = experiment: In vivo tumor growth inhibition, S-180 sarcoma in mice; details: 75 mg/kg i.v, injected twice (Day 1 and Day 4)
[2] = Body weight and deaths of S-180 bearing mice; format: in vivo; details: 75 mg/kg i.v, injected twice (Day 1 and Day 4)
[3] = test system: human leukemia cell MOLT-4; experiment: Growth inhibition of MOLT-4 cells (MTT or SRB assay); format: cell-based; details: read-out: Growth inhibition effect to MOLT-4 cell strain; for inhibition at 100 µM: 10^−4 M; for inhibition at 10 µM: 10^−5 M; for inhibition at 1 µM: 10^−6 M; for inhibition at 0.1 µM: 10^−7 M; for inhibition at 0.01 µM: 10^−8 M
Protocol: (§1) The procedure of MTT assay was as follows: appropriate amount of cells in log phase were seeded in 96-well plates (6000 cells/well, 15000 cells/well, 90ul/well) according to the growing rate. After cultured for 24 h, cells were exposed to serial dilutions of drugs in triplicate (10 ul/well). In addition, wells without cell, and wells without cell but with serial dilutions of drugs in case of using a colored-drug were set for zeroing. Then, the cells were cultured in 5% CO2 humidified incubator at 37° C. for 48 h. After treatment of drugs for 48 h, 20ul MTT (Sigma) which was diluted by normal saline to the concentration of 5 mg/ml was added to each well, 50ul/well 10%SDS-5% isobutanol-0.01% mol/LHCl was added after 4 h. After cultured overnight, absorbance was measured at 570 nm using a multiwell spectrophotometer. The inhibition effect of the compounds in test (percentage of growth inhibition) was calculated for each well: % inhibition=(OD570control cells−OD570treated cells)/OD570control cells×100%.
(§2) The procedure of SRB assay was as follows: appropriate amount of cells in log phase were seeded in 96-well plates according to the growing rate (90 ul/well). After cultured for 24 h, cells were exposed to serial dilutions of drugs in triplicate (10 ul/well). In addition, control wells of normal saline in corresponding concentrations and zeroing wells without cell were set. The cells were incubated in 5% CO2 humidified incubator at 37° C. After 72 h, the medium was removed and cells were fixed with cold 10% trichloric acid (TCA) at 4° C. for 1 h. The plates were washed with distilled water 5 times, and stained in room temperature with 4 mg/ml SRB (Sigma, diluted with 1% glacial acetic acid, 100 ul/well) for 15 minutes after air drying. SRB was then washed with 1% acetic acid 5 times. Plates were dried, followed by adding 150 ul/well Tris solution. Absorbance was measured at […] using a multiwell spectrophotometer. The inhibition effect of the compounds in test (percentage of growth inhibition) was calculated for each well: % inhibition=(A540control cells−A540treated cells)/A540control cells×100%.
(§3) The methods used were MTT assay or SRB assay.
(§4) The cell lines used were mice leukemia cell P388, human leukemia cell MOLT-4, human lung adenocarcinoma cell A-549, human gastric adenocarcinoma SGC-7901, human hepatocellular carcinoma BEL-7402 and human embryonal fibroblast WI-38 (commerially available from ATCC).
(§5) The exposure time to compounds was 48 h-72 h.

[4] = test system: human lung adenocarcinoma cell A-549; experiment: Growth inhibition of A-549 cells, SRB protein staining assay; format: cell-based; details: read-out: Growth inhibition effect to A-549 cell strain; for inhibition at 100 µM: A549, 10^−4 M; for inhibition at 10 µM: A549, 10^−5 M; for inhibition at 1 µM: A549, 10^−6 M; for inhibition at 0.1 µM: A549, 10^−7 M; for inhibition at 0.01 µM: A549, 10^−8 M
Protocol: (§6) The cell growth inhibition of mice leukemia cell P388 was evaluated by MTT (microculture tetrozolium) assay, while the cell growth inhibition of human lung adenocarcinoma cell A-549 was evaluated by SRB (Sulforhodamine B) protein staining assay.
as §2, §4, §5

[5] = test system: human gastric adenocarcinoma SGC-7901; experiment: Growth inhibition of SGC-7901 cells (MTT or SRB assay); format: cell-based; details: read-out: Growth inhibition effect to SGC-7901 cell strain; for inhibition at 100 µM: 10^−4 M; for inhibition at 10 µM: 10^−5 M; for inhibition at 1 µM: 10^−6 M; for inhibition at 0.1 µM: 10^−7 M; for inhibition at 0.01 µM: 10^−8 M
Protocol: as §1, §2, §3, §4, §5

mice leukemia cell P388 = experiment: Growth inhibition of P388 cells, MTT assay; format: cell-based; details: Mus musculus, read-out: Growth inhibition effect to P388 cell strain; for inhibition at 100 µM: 10^−4 M; for inhibition at 10 µM: 10^−5 M; for inhibition at 1 µM: 10^−6 M; for inhibition at 0.1 µM: 10^−7 M; for inhibition at 0.01 µM: 10^−8 M
Protocol: as §6, §1, §4, §5

[6] = test system: human hepatocellular carcinoma BEL-7402; experiment: Growth inhibition of BEL-7402 cells (MTT or SRB assay); format: cell-based; details: read-out: Growth inhibition effect to BEL-7402 cell strain; for inhibition at 100 µM: 10^−4 M; for inhibition at 10 µM: 10^−5 M; for inhibition at 1 µM: 10^−6 M; for inhibition at 0.1 µM: 10^−7 M; for inhibition at 0.01 µM: 10^−8 M
Protocol: as §1, §2, §3, §4, §5

S-180 sarcoma [7] = experiment: In vivo tumor growth inhibition, S-180 sarcoma in mice; details: i.p. injection
Protocol: S-180 sarcoma developed for 7-11 days and in good growth trend was homogenated into cell suspension. The cell suspension was inoculated subcutaneously into right armpit of female KM mice (18˜22 g) (about 1.0−2.5×10^6 cells/mouse). After 24 h, the mice were grouped in random with compounds administrated by i.p. injection. From the next day on, the mice were given serial dosages. After treatment, animals were killed, and solid tumors were removed and weighed after the body weight were weighed. The inhibition rate was calculated as follows, and T-test was carried out: [(Average tumor weight of NS group−Average tumor weight of test group)/Average tumor weight of NS group]×100%.

| Compound | melting point [°C] | inhibition at 100 µM [3] [%] | inhibition at 10 µM [3] [%] | inhibition at 1 µM [3] [%] | inhibition at 0.1 µM [3] [%] | inhibition at 0.01 µM [3] [%] | inhibition at 100 µM [4] [%] | inhibition at 10 µM [4] [%] | inhibition at 1 µM [4] [%] | inhibition at 0.1 µM [4] [%] | inhibition at 0.01 µM [4] [%] | inhibition at 100 µM [5] [%] | inhibition at 10 µM [5] [%] | inhibition at 1 µM [5] [%] | inhibition at 0.1 µM [5] [%] | inhibition at 100 µM (mice leukemia cell P388) [%] | inhibition at 10 µM (mice leukemia cell P388) [%] | inhibition at 1 µM (mice leukemia cell P388) [%] | inhibition at 0.1 µM (mice leukemia cell P388) [%] | inhibition at 0.01 µM (mice leukemia cell P388) [%] | other results |
| --- | --- | --- | --- | --- | --- | --- | --- | --- | --- | --- | --- | --- | --- | --- | --- | --- | --- | --- | --- | --- | --- |
| O=c1[nH]cc(F)c(=O)[nH]1 [5-FU] |  |  |  |  |  |  |  |  |  |  |  |  |  |  |  |  |  |  |  |  | Tumor growth inhibition % (S-180 sarcoma [1]): 96.9%; Weight of tumor (g) mean ± SD (S-180 sarcoma [1]): 0.05 ± 0.04 g; Weight of mice (g) Day 7 [2]: 20.7 g |
| CCCCn1c(=O)c2ccc3sc4ccccc4c4ccc(c1=O)c2c34 [compound 1, N-butyl benzo[k, l]thioxanthene-3,4-dicarboximide] | 185 to 186 | 100 | 98.5 | 97.7 | 77.4 | 1.1 | 34.4 | 0 | 0 | 0 | 0 | 87.5 | 56.2 | 46 | 21.4 | 51.7 | 10.2 | 6.4 | 2.2 | 4.3 | inhibition at 0.01 µM [5]: 9.8%; inhibition at 100 µM [6]: 70.1%; inhibition at 10 µM [6]: 76.9%; inhibition at 1 µM [6]: 67%; inhibition at 0.1 µM [6]: 3.7%; inhibition at 0.01 µM [6]: 6.6% |
| CN(C)CCn1c(=O)c2ccc3sc4ccccc4c4ccc(c1=O)c2c34 [compound 2, N-(N′,N′-dimethylaminoethyl)benzo[k, l]thioxanthene-3,4-dicarboximide] | 212 to 213 | 100 | 100 | 97.7 | 42.3 | 0 | 91.3 | 90.2 | 75.1 | 50.2 | 16.9 | 96.2 | 88 | 37.8 | 28.5 | 99.9 | 78.9 | 22.2 | 7.7 | 10.1 | inhibition at 0.01 µM [5]: 0.8%; inhibition at 100 µM [6]: 95.1%; inhibition at 10 µM [6]: 90.7%; inhibition at 1 µM [6]: 72.9%; inhibition at 0.1 µM [6]: 24.9%; inhibition at 0.01 µM [6]: 14.2% |
| CN(C)CCCn1c(=O)c2ccc3sc4ccccc4c4ccc(c1=O)c2c34 [compound 4, N-(N′, N′-dimethylaminopropyl)benzo[k, l]thioxanthene-3,4-dicarboximide] | 202 to 203 | 100 | 99.7 | 93.9 | 22.3 | 0 | 80.3 | 92.9 | 73.5 | 33.4 | 17.3 | 94.5 | 91.8 | 39.1 | 0.2 | 100 | 100 | 23.1 | 11 | 16.2 | inhibition at 0.01 µM [5]: 13.8%; inhibition at 100 µM [6]: 94.6%; inhibition at 10 µM [6]: 95%; inhibition at 1 µM [6]: 50.7%; inhibition at 0.1 µM [6]: 24.3%; inhibition at 0.01 µM [6]: 17.9% |
| CN(C)CCN1C(=O)c2cccc3c2c(cc2nc(-c4cccc([N+](=O)[O-])c4)sc23)C1=O [compound 7, N-(N′,N′-dimethylaminoethyl)-4H, 6H-9-m-nitrophenyl-benzo[de]thiazol[5,4-g]isoquinoline4,6-diketone] | 229 to 230 | 95.1 | 99.2 | 100 | 13.3 | 0 | 89.1 | 89 | 72.3 | 71.3 | 52 | 96.4 | 95.1 | 67 | 6.9 | 98.7 | 74.6 | 47.9 | 15.8 | 18 | inhibition at 0.01 µM [5]: 3.4%; activity against mice S180 sarcoma (in words) (S-180 sarcoma [7]; listed as C7): not potent; also recorded: active against S180 sarcoma, but weaker than C16; inhibition at 100 µM [6]: 96.9%; inhibition at 10 µM [6]: 95.8%; inhibition at 1 µM [6]: 80.6%; inhibition at 0.1 µM [6]: 33.1%; inhibition at 0.01 µM [6]: 17% |
| COc1ccc(-c2nc3cc4c5c(cccc5c3s2)C(=O)N(CCN(C)C)C4=O)cc1 [compound 9, N-(N′,N′-dimethylaminoethyl)-4H, 6H-9-p-methoxy phenyl-benzo[de]thiazol[5,4-g]isoquinoline-4,6-diketone] | 216 to 217 |  |  |  |  |  | 94.9 | 93.9 | 94.5 | 69.4 | 44.5 |  |  |  |  | 95.1 | 92.3 | 78.2 | 15.2 | 21 | activity against mice S180 sarcoma (in words) (S-180 sarcoma [7]; listed as C9): not potent; also recorded: active against S180 sarcoma, but weaker than C16 |
| CN(C)CCN1C(=O)c2cccc3c2c(cc2nnsc23)C1=O [compound 11, 5-(N′,N′-dimethylaminoethyl)-4H, 6H-benzo[de]-1,2,3,-thiadiazol[5,4-g]isoquinoline-4,6-diketone] | 178 to 179 | 100 | 100 | 100 | 82.8 | 0 | 95.7 | 93.7 | 94.5 | 76.6 | 20.2 | 96.5 | 97.1 | 38.9 | 16.7 | 98.7 | 92.7 | 42.2 | 13.8 | 10.7 | inhibition at 0.01 µM [5]: 1.1%; inhibition at 100 µM [6]: 95.7%; inhibition at 10 µM [6]: 90.9%; inhibition at 1 µM [6]: 74%; inhibition at 0.1 µM [6]: 20.1%; inhibition at 0.01 µM [6]: 24.4% |
